Results taken from patent US20050113566A1, “Inhibitors of C-FMS kinase” (priority 2003, published 2005).
pIC50: −log10 of the molar value.

Biological target: c-fms (Homo sapiens, UniProt P07333)
Assay: autophosphorylation, fluorescence polarization competition immunoassay for c-fms inhibition
Format: biochemical
Details: 10 nM c-fms, 1 mM ATP; for inhibition at 2 µM: at 2 μM compound; for pIC50: averages of three independent measurements
Method: The assay buffer used was 100 mM 4-(2-hydroxyethyl)piperazine 1-ethanesulfonic acid (HEPES), pH 7.5, 1 mM 1,4-dithio-DL-threitol (DTT), 0.01% (v/v) Tween-20. Compounds were diluted in assay buffer containing 4% dimethylsulfoxide (DMSO) just prior to the assay. To each well, 5 μL of compound were added followed by the addition of 3 μL of a mix containing 33 nM c-fms (Johnson & Johnson PRD) and 16.7 mM MgCl2 (Sigma) in assay buffer. The kinase reaction was initiated by adding 2 μL of 5 mM ATP (Sigma) in assay buffer. The final concentrations in the assay were 10 nM c-fms, 1 mM ATP, 5 mM MgCl2, 2% DMSO. Control reactions were ran in each plate: in positive and negative control wells, assay buffer (made 4% in DMSO) was substituted for the compound; in addition, positive control wells received 1.2 μL of 50 mM ethylenediaminetetraaceticacid (EDTA).
The plates were incubated at room temperature for 45 min. At the end of the incubation, the reaction was quenched with 1.2 μL of 50 mM EDTA (EDTA was not added to the positive control wells at this point; see above). Following a 5-min incubation, each well received 10 μL of a 1:1:3 mixture of anti-phosphotyrosine antibody, 10×, PTK green tracer, 10× (vortexed), FP dilution buffer, respectively (all from PanVera, cat. # P2837). The plate was covered, incubated for 30 min at room temperature and the fluorescence polarization was read on the Analyst. The instrument settings were: 485 nm excitation filter; 530 nm emission filter; Z height: middle of well; G factor: 0.93. […] The reported IC50 values are averages of three independent measurements.

Chain of c-fms (P07333 20-972): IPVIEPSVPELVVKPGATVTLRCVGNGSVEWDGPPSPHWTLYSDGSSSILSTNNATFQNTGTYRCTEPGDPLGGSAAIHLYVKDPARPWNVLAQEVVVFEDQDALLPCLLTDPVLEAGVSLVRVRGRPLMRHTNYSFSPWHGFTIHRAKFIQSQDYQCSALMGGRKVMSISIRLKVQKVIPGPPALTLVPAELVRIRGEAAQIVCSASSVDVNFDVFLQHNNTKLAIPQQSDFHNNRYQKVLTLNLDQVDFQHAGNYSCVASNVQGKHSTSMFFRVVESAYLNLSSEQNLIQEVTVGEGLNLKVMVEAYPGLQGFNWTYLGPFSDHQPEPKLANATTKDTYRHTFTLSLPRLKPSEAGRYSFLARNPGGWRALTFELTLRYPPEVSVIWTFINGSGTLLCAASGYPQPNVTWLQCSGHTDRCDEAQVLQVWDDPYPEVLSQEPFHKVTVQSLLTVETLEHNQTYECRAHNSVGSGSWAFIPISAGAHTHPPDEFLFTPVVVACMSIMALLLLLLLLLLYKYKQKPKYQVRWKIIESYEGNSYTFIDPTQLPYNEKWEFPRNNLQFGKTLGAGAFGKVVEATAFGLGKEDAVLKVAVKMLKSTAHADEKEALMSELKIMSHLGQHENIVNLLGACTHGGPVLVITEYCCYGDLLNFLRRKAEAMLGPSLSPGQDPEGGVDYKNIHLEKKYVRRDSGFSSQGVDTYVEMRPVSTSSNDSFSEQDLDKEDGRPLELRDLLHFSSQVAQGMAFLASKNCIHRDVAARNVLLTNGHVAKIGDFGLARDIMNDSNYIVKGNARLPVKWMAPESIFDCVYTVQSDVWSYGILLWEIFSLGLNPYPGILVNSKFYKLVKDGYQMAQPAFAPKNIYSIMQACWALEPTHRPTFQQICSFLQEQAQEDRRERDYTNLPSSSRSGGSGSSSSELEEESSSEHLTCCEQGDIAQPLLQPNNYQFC

Row | SMILES | inhibition at 2 µM [%] | pIC50
1 | N#Cc1ccc(C(=O)Nc2ccccc2C2CCCCC2)o1 | 29 | –
2 | N#Cc1ccc(C(=O)Nc2ccccc2C2=CCCCC2)o1 | 85 | > 6.00

The next lines start with the values.

Row | inhibition at 2 µM [%] | pIC50 | SMILES
3 | 13 | – | N#Cc1ccc(C(=O)Nc2ccccc2-c2ccco2)o1
4 | 54 | > 5.30 | N#Cc1ccc(C(=O)Nc2ccccc2-c2ccccc2)o1
5 | 25 | – | N#Cc1ccc(C(=O)Nc2ccccc2-c2cccs2)o1
